# Test results taken from the supplement of paper PMC10307832.
# What was measured:
# Assay in all cases: relative viability (nuclei count vs DMSO), 5 days (fraction); higher = more cells survive
# HCC-44 = test system: HCC-44
# Outline: (§1)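 Relative viability divides the nuclei count in treated wells by that in vehicle wells. Lung cancer cell lines were seeded in 1536-well plates, dosed by pin tool the next day, and fixed and stained after 5 days in one step with final 0.05% Triton X-100, 1% formaldehyde and 1 ug/ml Hoechst. Dosing was a single drug or a fixed anchor-drug dose plus five library-drug doses (not always all listed) in √10 steps, and values are medians of duplicate plates imaged at 4×.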
# NCI-H1650 = test system: NCI-H1650
# Outline: as §1
# NCI-H1944 = test system: NCI-H1944
# Outline: as §1
# PC-3 [JPC-3] = test system: PC-3 [JPC-3]
# Outline: as §1
# H3255 = test system: H3255
# Outline: as §1
# NCI-H23 = test system: NCI-H23
# Outline: as §1
# COR-L23 = test system: COR-L23
# Outline: as §1
# PC-14 = test system: PC-14
# Outline: as §1
# NCI-H2347 = test system: NCI-H2347
# Outline: as §1
# SW 900 = test system: SW 900
# Outline: as §1
# LK-2 = test system: LK-2
# Outline: as §1
# NCI-H838 = test system: NCI-H838
# Outline: as §1
# LU99A = test system: LU99A
# Outline: as §1
# NCI-H650 = test system: NCI-H650
# Outline: as §1
# NCI-H1563 = test system: NCI-H1563
# Outline: as §1
# SW 1573 = test system: SW 1573
# Outline: as §1
# LCLC-103H = test system: LCLC-103H
# Outline: as §1
# NCI-H727 = test system: NCI-H727
# Outline: as §1
# NCI-H460 = test system: NCI-H460
# Outline: as §1
# LCLC-97TM1 = test system: LCLC-97TM1
# Outline: as §1
# A-427 = test system: A-427
# Outline: as §1
# NCI-H1793 = test system: NCI-H1793
# Outline: as §1
# 201T = test system: 201T
# Outline: as §1
smiles,measurement,setting,value
O=C(O)c1ccc(-c2c[nH]c3ncc(-c4ccccc4)cc23)cc1C1CCCC1 + CCNC(=O)c1noc(-c2cc(C(C)C)c(O)cc2O)c1-c1ccc(CN2CCOCC2)cc1 [Luminespib] (partner 0.01 µM),relative viability,HCC-44; first compound 0.04 µM,1.08
same,relative viability,HCC-44; first compound 0.1265 µM,1.44
same,relative viability,HCC-44; first compound 0.4 µM,0.868
same,relative viability,HCC-44; first compound 1.265 µM,0.448
same,relative viability,NCI-H1650; first compound 0.04 µM,0.194
same,relative viability,NCI-H1650; first compound 0.1265 µM,0.17
same,relative viability,NCI-H1650; first compound 0.4 µM,0.196
same,relative viability,NCI-H1650; first compound 1.265 µM,0.197
same,relative viability,NCI-H1944; first compound 0.04 µM,0.687
same,relative viability,NCI-H1944; first compound 0.1265 µM,0.836
same,relative viability,NCI-H1944; first compound 0.4 µM,0.716
same,relative viability,NCI-H1944; first compound 1.265 µM,0.702
same,relative viability,PC-3 [JPC-3]; first compound 0.04 µM,0.678
same,relative viability,PC-3 [JPC-3]; first compound 0.1265 µM,0.761
same,relative viability,PC-3 [JPC-3]; first compound 0.4 µM,0.619
same,relative viability,PC-3 [JPC-3]; first compound 1.265 µM,0.569
same,relative viability,H3255; first compound 0.04 µM,0.978
same,relative viability,H3255; first compound 0.1265 µM,0.983
same,relative viability,H3255; first compound 0.4 µM,0.855
same,relative viability,H3255; first compound 1.265 µM,0.778
same,relative viability,NCI-H23; first compound 0.04 µM,0.224
same,relative viability,NCI-H23; first compound 0.1265 µM,0.217
same,relative viability,NCI-H23; first compound 0.4 µM,0.217
same,relative viability,NCI-H23; first compound 1.265 µM,0.2
same,relative viability,COR-L23; first compound 0.04 µM,0.656
same,relative viability,COR-L23; first compound 0.1265 µM,0.742
same,relative viability,COR-L23; first compound 0.4 µM,0.612
same,relative viability,COR-L23; first compound 1.265 µM,0.407
same,relative viability,PC-14; first compound 0.04 µM,0.225
same,relative viability,PC-14; first compound 0.1265 µM,0.129
same,relative viability,PC-14; first compound 0.4 µM,0.141
same,relative viability,PC-14; first compound 1.265 µM,0.134
same,relative viability,NCI-H2347; first compound 0.04 µM,0.444
same,relative viability,NCI-H2347; first compound 0.1265 µM,0.794
same,relative viability,NCI-H2347; first compound 0.4 µM,0.275
same,relative viability,NCI-H2347; first compound 1.265 µM,0.408
same,relative viability,SW 900; first compound 0.04 µM,0.185
same,relative viability,SW 900; first compound 0.1265 µM,0.171
same,relative viability,SW 900; first compound 0.4 µM,0.175
same,relative viability,SW 900; first compound 1.265 µM,0.156
same,relative viability,LK-2; first compound 0.04 µM,0.157
same,relative viability,LK-2; first compound 0.1265 µM,0.187
same,relative viability,LK-2; first compound 0.4 µM,0.161
same,relative viability,LK-2; first compound 1.265 µM,0.168
same,relative viability,NCI-H838; first compound 0.04 µM,0.315
same,relative viability,NCI-H838; first compound 0.1265 µM,0.266
same,relative viability,NCI-H838; first compound 0.4 µM,0.26
same,relative viability,NCI-H838; first compound 1.265 µM,0.287
same,relative viability,LU99A; first compound 0.04 µM,0.259
same,relative viability,LU99A; first compound 0.1265 µM,0.254
same,relative viability,LU99A; first compound 0.4 µM,0.244
same,relative viability,LU99A; first compound 1.265 µM,0.273
same,relative viability,NCI-H650; first compound 0.04 µM,0.866
same,relative viability,NCI-H650; first compound 0.1265 µM,0.861
same,relative viability,NCI-H650; first compound 0.4 µM,0.757
same,relative viability,NCI-H650; first compound 1.265 µM,0.293
same,relative viability,NCI-H1563; first compound 0.04 µM,0.489
same,relative viability,NCI-H1563; first compound 0.1265 µM,0.599
same,relative viability,NCI-H1563; first compound 0.4 µM,0.42
same,relative viability,NCI-H1563; first compound 1.265 µM,0.508
same,relative viability,SW 1573; first compound 0.04 µM,0.563
same,relative viability,SW 1573; first compound 0.1265 µM,0.486
same,relative viability,SW 1573; first compound 0.4 µM,0.292
same,relative viability,SW 1573; first compound 1.265 µM,0.383
same,relative viability,LCLC-103H; first compound 0.04 µM,1.08
same,relative viability,LCLC-103H; first compound 0.1265 µM,1.05
same,relative viability,LCLC-103H; first compound 0.4 µM,0.84
same,relative viability,LCLC-103H; first compound 1.265 µM,0.713
same,relative viability,NCI-H727; first compound 0.04 µM,0.325
same,relative viability,NCI-H727; first compound 0.1265 µM,0.41
same,relative viability,NCI-H727; first compound 0.4 µM,0.638
same,relative viability,NCI-H727; first compound 1.265 µM,0.281
same,relative viability,NCI-H460; first compound 0.04 µM,0.0285
same,relative viability,NCI-H460; first compound 0.1265 µM,0.0329
same,relative viability,NCI-H460; first compound 0.4 µM,0.0398
same,relative viability,NCI-H460; first compound 1.265 µM,0.0257
same,relative viability,LCLC-97TM1; first compound 0.04 µM,0.858
same,relative viability,LCLC-97TM1; first compound 0.1265 µM,0.82
same,relative viability,LCLC-97TM1; first compound 0.4 µM,0.633
same,relative viability,LCLC-97TM1; first compound 1.265 µM,0.5
same,relative viability,A-427; first compound 0.04 µM,0.956
same,relative viability,A-427; first compound 0.1265 µM,1.01
same,relative viability,A-427; first compound 0.4 µM,0.647
same,relative viability,A-427; first compound 1.265 µM,0.577
same,relative viability,NCI-H1793; first compound 0.04 µM,0.19
same,relative viability,NCI-H1793; first compound 0.1265 µM,0.166
same,relative viability,NCI-H1793; first compound 0.4 µM,0.151
same,relative viability,NCI-H1793; first compound 1.265 µM,0.148
same,relative viability,201T; first compound 0.04 µM,1.08
same,relative viability,201T; first compound 0.1265 µM,1.04
same,relative viability,201T; first compound 0.4 µM,1.07
same,relative viability,201T; first compound 1.265 µM,0.987
